From patent publication US20050090522A1 (priority 2001, published 2005)
Like-named read-outs stand apart in the source and are kept apart here.

How the values were obtained:
[1] = system: HIV-1; test: HIV-1 single-round infectious luciferase reporter virus (pseudotype) assay in HeLa CD4 CCR5 cells; format: cell-based
Outline: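 Reporter pseudovirus produced in 293 cells infected HeLa cells expressing CD4/CCR5 at MOI ~0.01, with compound present at <10 μM final. Infection was quantified as luciferase luminescence after 72 h.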

[2] = system: HeLa cells; test: Cytotoxicity assay in HeLa cells (MTT dye reduction, CC50)
Description: • Virus production—Human embryonic Kidney cell line, 293, propagated in Dulbecco's Modified Eagle Medium (Life Technologies, Gaithersburg, Md.) containing 10% fetal Bovine serum (FBS, Sigma, St. Louis, Mo.). • Virus infection—Human epithelial cell line, HeLa, expressing the HIV-1 receptors CD4 and CCR^5 was propagated in Dulbecco's Modified Eagle Medium (Life Technologies, Gaithersburg, Md.) containing 10% fetal Bovine serum (FBS, Sigma, St. Louis, Mo.) and supplemented with 0.2 mg/mL Geneticin (Life Technologies, Gaithersburg, Md.) and 0.4 mg/mL Zeocin (Invitrogen, Carlsbad, Calif.). […] Transfections were performed using lipofectAMINE PLUS reagent as described by the manufacturer (Life Technologies, Gaithersburg, Md.). Experiment • 1. Compound was added to HeLa CD4 CCR5 cells plated in 96 well plates at a cell density of 5×10^4 cells per well in 100 μl Dulbecco's Modified Eagle Medium containing 10% fetal Bovine serum at a concentration of […]. • 2. 100 μl of single-round infectious reporter virus in Dulbecco's Modified Eagle Medium was then added to the plated cells and compound at an approximate multiplicity of infection (MOI) of 0.01, resulting in a final volume of 200 μl per well and a final compound concentration of <10 μM. • 3. Samples were harvested 72 h after infection. • 4. Viral infection was monitored by measuring luciferase expression from viral DNA in the infected cells using a luciferase reporter gene assay kit (Roche Molecular Biochemicals, Indianapolis, Ind.). Infected cell supernatants were removed and 50 μl of Dulbecco's Modified Eagle Medium (without phenol red) and 50 μl of luciferase assay reagent reconstituted as described by the manufacturer (Roche Molecular Biochemicals, Indianapolis, Ind.) was added per well. Luciferase activity was then quantified by measuring luminescence using a Wallac microbeta scintillation counter. • 5. […] An EC50 provides a method for comparing the antiviral potency of the compounds of this invention. The effective concentration for fifty percent inhibition (EC50) was calculated with the Microsoft Excel Xlfit curve fitting software. For each compound, curves were generated from percent inhibition calculated at 10 different concentrations by using a four paramenter logistic model (model 205). Table 1 is the key for the data in Tables 2-4. Cytoxicity assays were conducted with the same HeLa using methodology well known in the art.
(§1) For accuracy, the determined measure of viral inhibition is an EC50; but the minimum plasma concentrations which should be maintained in a patient is generally believed to be at least four or five fold higher. […] Lower is better. • 4) Estimating potential exposure in man by measuring parameters such as AUC and rate of clearance by oral and iv dosing in rats. High exposure and low clearance was desired.

[3] = Metabolic stability in pooled human liver microsomes (HLM); conditions: pooled human liver microsomes, 3 μM drug; Low/Intermediate/High
Description: Metabolic Stability Studies of compounds in Liver Microsomes. The metabolic stability of compounds were investigated in pooled liver microsomes from humans. The human liver microsomes were obtained from BD Gentest (Lot #16, Woburn, Mass.) with a protein concentration of 20 mg/ml and a total cytochrome P450 (CYP) concentration of 0.55 nmol/mg protein. A stock solution of drug was prepared in acetonitrile at 1 mM. […] The incubation media consisted of potassium phosphate buffer (0.1 M, pH 7.4), liver microsomes (final concentration 0.9 mg/ml), magnesium chloride (0.033 mM), and a NADPH-regenerating system. […] The test compound was pre-incubated in the media for 2 min. The reaction was initiated by the addition of the cofactors. The incubation was carried out at 37° C. for 10 min. The reaction was terminated by drawing an aliquot of 100 μL from the incubation and adding into 200 μL of acetonitrile containing a reference compound as an […] analytical standard. Following vortex-mixing and centrifugation, an aliquot of 10 μL of the supernatant was analyzed by LC/MS.
GUIDELINES can be used to categorized test substances as low, intermediate or highly cleared compounds.
as §1
The stability of compounds were also evaluated to determine metabolic stability when incubated in in vitro preparations of human liver microsomes (HLM). This is one commonly used predictive system for evaluating the potential for human metabolism and projecting clearance rates in man. Compounds with low clearance rates were most desireable.

[4] = Human immunodeficiency virus 1, HeLa-CD4/CCR5, read-out: EC50 Group from TABLE 1, HeLa CD4 CCR5 cells, single-round infectious luciferase reporter virus
[5] = Human immunodeficiency virus 1, HeLa-CD4/CCR5, read-out: EC50 category, HIV-1 single-round reporter virus assay, category 1/2/3 per Table A1 key
[6] = cytotoxicity, Yes = CC50 above 100 uM, No = not
[7] = Human immunodeficiency virus 1, HeLa-CD4/CCR5, read-out: EC50 Group from Table 1, Table 4, HeLa CD4 CCR5 cells, single-round luciferase reporter virus
[8] = Human immunodeficiency virus 1, HeLa-CD4/CCR5, read-out: EC50 category, initial pseudotype assay, key in Table A1
[9] = HeLa cells, six days with drug, MTT

| Structure (SMILES) | EC50 [1, 4] | EC50 [1, 5] | CC50 > 100 uM [2, 6] | HLM predicted human clearance class [3] | EC50 [1, 7] | EC50 [1, 8] | CC50 > 100 uM [2, 9] | EC50 ([1]; Human immunodeficiency virus 1, HeLa-CD4/CCR5, read-out: EC50 Group from Table 1, Table 2-1, HeLa CD4 CCR5 cells, single-round luciferase reporter virus) |
| --- | --- | --- | --- | --- | --- | --- | --- | --- |
| Cn1ccc(-c2ncc(F)c3c(C(=O)C(=O)N4CCN(C(=O)c5ccccc5)CC4)c[nH]c23)n1 [Example 29, 1-benzoyl-4-[(4-fluoro-7-(1-methyl-pyrazol-3-yl)-6-azaindol-3-yl)-oxoacetyl]piperazine] | < 1000 nM | 0.2 to 1000 nM | No | High (0.201-0.300) | – | – | – | – |
| COc1cnc(-c2nccs2)c2[nH]cc(C(=O)C(=O)N3CCN(C(=O)c4ccccc4)CC3)c12 [Example 35, 1-(benzoyl)-4-[(4-methoxy-7-(thiazol-2-yl)-6-azaindol-3-yl)-oxoacetyl]piperazine] | < 1000 nM | < 0.2 nM | Yes | Intermediate (0.101-0.200) | – | – | – | – |
| O=C(C(=O)N1CCN(C(=O)c2ccccc2)CC1)c1c[nH]c2c(-c3cc[nH]n3)ncc(F)c12 [Example 38, 1-benzoyl-4-[(4-fluoro-7-(pyrazol-3-yl)-6-azaindol-3-yl)-oxoacetyl]piperazine] | < 1000 nM | < 0.2 nM | – | Low (0-0.100) | – | – | – | – |
| COc1cnc(-c2cc[nH]n2)c2[nH]cc(C(=O)C(=O)N3CCN(C(=O)c4ccccc4)CC3)c12 [Example 39, 1-benzoyl-4-[(4-methoxy-7-(pyrazol-3-yl)-6-azaindol-3-yl)-oxoacetyl]piperazine] | < 1000 nM | 0.2 to 1000 nM | No | Intermediate (0.101-0.200) | – | – | – | – |
| O=C(C(=O)N1CCN(C(=O)c2ccccc2)CC1)c1c[nH]c2c(-c3cncnc3)ncc(F)c12 [Example 42, 1-benzoyl-4-[(4-fluoro-7-(pydin-5-yl)-6-azaindol-3-yl)-oxoacetyl]piperazine] | < 1000 nM | 0.2 to 1000 nM | Yes | Low (0-0.100) | – | – | – | – |
| COc1cnc(-c2cncs2)c2[nH]cc(C(=O)C(=O)N3CCN(C(=O)c4ccccc4)CC3)c12 [Example 71, 1-benzoyl-4-[(4-methoxy-7-(thioazol-5-yl)-6-azaindol-3-yl)-oxoacetyl]piperazine] | < 1000 nM | < 0.2 nM | Yes | Intermediate (0.101-0.200) | – | – | – | – |
| COc1cnc(-c2ccco2)c2[nH]cc(C(=O)C(=O)N3CCN(C(=O)c4ccccc4)CC3)c12 [Example 73, 1-(benzoyl)-4-[(4-methoxy-7-(furan-2-yl)-6-azaindol-3-yl)-oxoacetyl]piperazine] | < 1000 nM | < 0.2 nM | Yes | Intermediate (0.101-0.200) | – | – | – | – |
| COc1cnc(-c2ncco2)c2[nH]cc(C(=O)C(=O)N3CCN(C(=O)c4ccccc4)CC3)c12 [Example 74, 1-benzoyl-4-[(4-methoxy-7-(oxazol-2-yl)-6-azaindol-3-yl)-oxoacetyl]piperazine] | < 1000 nM | 0.2 to 1000 nM | No | Intermediate (0.101-0.200) | – | – | – | – |
| COc1cnc(-c2cnc(NC(C)=O)s2)c2[nH]cc(C(=O)C(=O)N3CCN(C(=O)c4ccccc4)CC3)c12 [Example 78, 1-benzoyl-4-[(4-methoxy-7-(2-acetylamino-thiazol-5-yl)-6-azaindol-3-yl)-oxoacetyl]piperazine] | < 1000 nM | 0.2 to 1000 nM | Yes | Intermediate (0.101-0.200) | – | – | – | – |
| O=C(C(=O)N1CCN(C(=O)c2ccccc2)CC1)c1c[nH]c2c(-c3cnccn3)ncc(F)c12 [Example 95, 1-benzoyl-4-[(4-fluoro-7-(pyrazin-2-yl)-6-azaindol-3-yl)-oxoacetyl]piperazine] | < 1000 nM | < 0.2 nM | – | Intermediate (0.101-0.200) | – | – | – | – |
| C[C@@H]1CN(C(=O)c2ccccc2)CCN1C(=O)C(=O)c1c[nH]c2c(-n3cccn3)ncc(Br)c12 [Example 139] | < 1000 nM | 0.2 to 1000 nM | Yes | High (0.201-0.300) | – | – | – | – |
| O=C(C(=O)N1CCN(C(=O)c2ccccc2)CC1)c1c[nH]c2c(-n3ccnn3)ccnc12 [Example 206, 1-(4-benzoyl-piperazin-1-yl)-2-(7-[1,2,3]triazol-1-yl-1H-pyrrolo[3,2-b]pyridin-3-yl)-ethane-1,2-dione] | – | 0.2 to 1000 nM | Yes | – | < 1000 nM | – | – | – |
| O=C(C(=O)N1CCN(C(=O)c2ccccc2)CC1)c1c[nH]c2c(-n3cccn3)ccnc12 [Example 208, 1-(4-Benzoyl-piperazin-1-yl)-2-(7-pyrazol-1-yl-1H-pyrrolo[3,2-b]pyridin-3-yl)-ethane-1,2-dione] | – | 0.2 to 1000 nM | Yes | – | < 1000 nM | – | – | – |
| CNC(=O)c1cc(-c2ncc(F)c3c(C(=O)C(=O)N4CCN(C(=O)c5ccccc5)CC4)c[nH]c23)n[nH]1 [Example 211] | < 1000 nM | < 0.2 nM | – | Intermediate (0.101-0.200) | – | – | – | – |
| CN(C)C(=O)c1cc(-c2ncc(F)c3c(C(=O)C(=O)N4CCN(C(=O)c5ccccc5)CC4)c[nH]c23)n[nH]1 [Example 212] | < 1000 nM | < 0.2 nM | – | Low (0-0.100) | – | – | – | – |
| O=C(C(=O)N1CCN(C(=O)c2ccccc2)CC1)c1c[nH]c2c(-n3nccn3)ncc(F)c12 [Example 217] | < 1000 nM | – | – | – | – | 0.2 to 1000 nM | Yes | – |
| O=C(C(=O)N1CCN(C(=O)c2ccccc2)CC1)c1c[nH]c2c(-n3cccc3)ncc(F)c12 [Example 220] | < 1000 nM | 0.2 to 1000 nM | Yes | – | – | – | – | – |
| COc1cnc(-n2nccn2)c2[nH]cc(C(=O)C(=O)N3CCN(C(=O)c4ccccc4)[C@H](C)C3)c12 [Example 256, (R)-1-benzoyl-2-methyl-4-[(4-methoxy-7-(1,2,3-triazol-2-yl)-6-azaindol-3-yl)-oxoacetyl]piperazine] | – | – | – | – | – | 0.2 to 1000 nM | Yes | < 1000 nM |
| CNC(=O)c1ccn(-c2ncc(OC)c3c(C(=O)C(=O)N4CCN(C(=O)c5ccccc5)CC4)c[nH]c23)n1 [Example 276, 1-benzoyl-4-[(4-methoxy-7-(3-methylaminocarbonyl-pyrazol-1-yl)-6-azaindol-3-yl)-oxoacetyl]piperazine] | < 1000 nM | < 0.2 nM | Yes | – | – | – | – | – |
| Cn1ncnc1-c1ncc(F)c2c(C(=O)C(=O)N3CCN(C(=O)c4ccccc4)CC3)c[nH]c12 [Example 301] | < 1000 nM | 0.2 to 1000 nM | Yes | – | – | – | – | – |
